Laboratory results taken from patent publication US20190216848A1, “New Use of Product for Skin Treatment” (BioCool AB, priority 2016, published 2019).
“Also recorded” adds a separate entry of the source.

Key:
[1] = system: patients with acne vulgaris; conditions: references (9), (10), (12); cited from earlier work
[2] = system: patients diagnosed with moderate acne (Acne vulgaris); test: Acne vulgaris pilot study: blinded acne papule counting from photographs; type: in vivo, human
From the text: A study consisted of a total of 16 patients, 2 males and 14 females. Mean age was 28±7 years. The study included men and women, previously healthy, between 18-45 years, not using contraception, not breastfeeding or pregnant, and having been diagnosed with moderate acne. Patients with ongoing treatment for acne vulgaris were excluded or treatment was withdrawn one month before the start of the study. Also, patients who could not follow instructions and who were assumed to have poor compliance were excluded.
(§1) Statistical Methods: Dropouts included in the result were 2 patients. These patients were followed up at the doctor's appointment number 2 and the results were included in the so-called “intention to treat” where the values produced two visits was the same for the coming weeks for follow-up visits. The statistical analysis used was t-test and Wilcoxon rank-sum test.
(§2) Each patient received the sodium percarbonate at home. […] This procedure was repeated daily by the patient. […] Follow-up visits occurred weekly for four weeks.
(§3) Photography: Each patient was photographed prior to initiation of treatment, and weekly for four weeks. Portrait photo is taken from the front and profile of each view of the face. Photos were taken with the same camera and camera settings and the same photographer. The same light was used by 45-degree angle. However, technology is not validated and all the photos were not taken exactly the same. Each patient was encoded by the study manager with a number. After all the photos were taken, outside observers (fellow doctor) counted the number of acne papule for each patient for each visit, without knowing the visit week during which the photo was taken. The number of acne papules was summed up by frontal view, as well as by the two side views. Results were calculated as an average of the number of acne papule for each visit at the group level. DLQ survey summed with points for each patient for each visit. Even this was calculated with the average at group level.

[3] = system: patients diagnosed with moderate acne (Acne vulgaris); conditions: four weeks of treatment
Description: Treatment and follow-up: On the first visit to a doctor, patients received the same information and instructions as given by the manufacturer BioCool®. Each patient received the sodium percarbonate at home. The jars of powder were unmarked but if the patient wished to know the content they were informed. All processing was done at residences of the patient by the patient. 5 ml of sodium percarbonate was dissolved in 5 ml of water at a temperature of 35-40° C. to form a solution. The solution was applied to the face using the fingers, and washed away with tap water after 5 minutes. This procedure was repeated daily by the patient. After about one hour after the treatment the subjects could, if desired, lubricate the skin with a moisturizing product, allowing enough time for the skin pores to close up for any additional product. Follow-up visits occurred weekly for four weeks. At each visit, the patient had completed the rating scale DLQ (Dermatology Life Quality Index), they were photographed and subject to an open interview.
Interview: The patient's subjective experience was investigated with a semi-structured interview based on the query field (8). The interview was conducted by research doctors. […] No recording method was used.

[4] = system: patients diagnosed with moderate acne (Acne vulgaris); test: Acne vulgaris pilot study: DLQ (Dermatology Life Quality Index) symptom rating; type: in vivo, human
From the text: as §1, §2
as §3, with “taken. […]” for “taken. The number of acne papules was summed up by frontal view, as well as by the two side views.”, “level. […]” for “level. DLQ survey summed with points for each patient for each visit.”, “level. […]” for “level.”

[5] = system: individuals with diabetes and neuropathy, feet with moderate to severe skin conditions; test: Diabetic Peripheral Neuropathy foot bath study: skin condition of the feet by photos; type: in vivo, human; conditions: for Condition of the feet / skin condition, visual (photos): all patients included, daily foot bath per study protocol, 6 weeks, preliminary results
Description: I. Improvement in skin condition evaluated by photos according to a pre-set scale (1-5): The target population include in this evaluation are adult individuals with diabetes and neuropathy, with feet with moderate to severe skin conditions 7.1.3 Frequency of application. Daily application for 6 weeks or until the signs and symptoms are cleared, then once a week. 1. Start by placing the feet in the footbath, containing 2-3 litres (about 1 gallon) of lukewarm water (about 38° C.). Measure out 15 ml (about 1 tbs.) of granules and add to the footbath. NB! The order is important, the feet must be in the bath before adding the granules. 2. Bathe the feet for about 20 minutes This is a 6-week, single centre, open label evaluation conducted in patients suffering from Diabetic Feet of neuropathic origin with moderate to severe non ulcer pathology (dry skin, cracks, callosities) 9.2 STUDY FLOW CHART visits 0 and 6 weeks for photos, skin evaluation, test protocol and evaluation of safety and concordance At each visit a required medical evaluations is performed at inclusion (0) and 6 weeks (+/−3 days). A photograph is performed and a test protocol is followed regarding skin condition. Any local and general intercurrent events (expected or unexpected) are recorded. Patients receive a patient care diary at their first visit. Investigators are allowed to see patients more frequently if required. 11.3 EVALUATION CRITERIA Improvement of skin condition evaluated by photos analysed by independent observers

[6] = Duration of effectiveness of the prepared aqueous solution; type: physicochemical; conditions: 1-5 g in 0.05-1 dl of water at 35-40° C.; effectiveness gradually decreases
Description: The solution obtained according to the method above is effective for about 24 h. […] A new solution must be prepared after 24 hours as the effectiveness of the singlet oxygen in the solution has decreased below an efficient level for treatment. The solution is to be applied to the face and/or affected skin at least once daily.

microorganisms = conditions: within the range of 0.5-4% of hydrogen peroxide

COc1ccc(-c2ccc3cc(C(=O)O)ccc3c2)cc1C12CC3CC(CC(C3)C1)C2 [Adapalene]
Number of acne papules / efficacy in literature study [1]: significant reduced | Safety / tolerance in literature study [1]: safe and effective

O=C([O-])[O-].O=C([O-])[O-].OO.OO.OO.[Na+].[Na+].[Na+].[Na+] [Sodium percarbonate, sodium percarbonate]
Number of acne papule over time (in words) ([2]; 4 weeks of treatment): clearly reduced; also recorded: significantly decreased | Papule count, mean ([2]; after 4 weeks of daily topical treatment (5 ml in 5 ml water, 5 minutes), SD 10.2, p <0.001 vs before): 18.3 | Papule count, mean ([2]; before treatment (baseline), 16 patients, SD 12.4): 25.4 | Time to apparent effect on the appearance of new papules ([2]; topical treatment of Acne vulgaris): ≤ 2 weeks | Patients' description of their skin in interviews [3]: cleaner, smoother, softer and firmer | DLQ symptom rating, median ([4]; after 4 weeks of daily topical treatment, interquartile range 2, p 0.002): 1.5 | DLQ symptom rating, median ([4]; before treatment (baseline), interquartile range 4): 3 | Condition of the feet (photos), patient No. 01 ([5]; FIG. 4, after 6 weeks of treatment): The large crack on the right heel has significantly improved | Condition of the feet (photos), patient No. 06 ([5]; FIG. 5, before vs after treatment): the ulcer has declined in size | Condition of the feet (photos), patient No. 9 ([5]; FIG. 6, before vs after treatment): the hardened patches are no longer present | Condition of the feet / skin condition, visual (photos) [5]: significant visual improvement | Condition of the feet / skin condition, visual (photos) ([5]; listed as sodium percarbonate): significant improvement of the skin condition | Time the prepared solution is effective [6]: about 24 h

O=C(OOC(=O)c1ccccc1)c1ccccc1 [benzoyl peroxide]
Number of acne papules / efficacy in literature study [1]: significant reduced | Safety / tolerance in literature study [1]: safe and effective

OO [hydrogen peroxide]
Effect on killing off microorganisms with increasing concentration (microorganisms): practically the same | Number of acne papules / efficacy in literature study [1]: at least as good | Safety / tolerance in literature study [1]: better tolerance for skin
